# Tests used:
# anti-FVIII titers = assay: Effect of OPLS on in-vivo immunogenicity of FVIII after sc administration; parameters: species or system HA mice; settings: days 1, 8, 10, 12
# Procedure: Effect of OPLS on the immunogenicity of FVIII after SC administration in-vivo: 21 HA mice between 6 and 8 weeks of age were divided into 3 groups: group one received 1 ug FVIII SC in the abdominal region. Group two received 1 μg FVIII plus 0.4 mg OPLS SC in the abdominal region and group 3 received 1 μg FVIII plus 5 mg OPLS sc in the abdominal region. Incubation of FVIII with OPLS at 37° C. for 30 minutes ensures complexation, but for this example, OPLS and FVIII were combined at the desired concentrations at room temperature (22° C.) and immediately administered (within 1 minute). This treatment was given one day 1, 8, 10 and 12. Three days after the last injection the animals were sacrificed. Blood was centrifuged at 7500 rpm for 5 min at 4 degrees Celsius. Plasma was then removed and stored at −80 degrees Celsius until analysis.
# Total titers were determined by classical standard ELISA. Anti-FVIII antibody (ESH8) was used as a control. Statistics was done on the arithmetic mean of the log transformed data, graphs are reported as geometric means. Non-responders were given the value of the plate specific factor for uniformity. […]
# Statistics: Non-parametric one-way ANOVA with Tukey's post hoc analysis was used for the analysis of titer values where appropriate. Student t-test was used for comparing mean intensity of fluorescence (MIF) for flow cytomerty data. […]
# [1] = PK of FVIII in the presence and absence of OPLS; type: in vivo, HA mice
structure (smiles),measurement,setting,value
"N[C@@H](COP(=O)(O)O)C(=O)O [OPLS, O-Phospho-L-Serine]",Total anti-FVIII titer,"anti-FVIII titers; 1 μg FVIII with high dose OPLS (5 mg/injection) sc, geometric mean±SD",5.34±5.8 arbitrary units
same,Total anti-FVIII titer,"anti-FVIII titers; 1 μg FVIII with low dose OPLS (0.4 mg/injection) sc, not statistically significant vs FVIII alone",137±1.4 arbitrary titer units
same,FVIII plasma exposure after intravenous co-administration,"[1]; iv, FIG. 4",slight increase
same,Bioavailability after subcutaneous co-administration,[1]; sc co-administration vs biotherapeutic alone,improves
same,Lymphatic uptake from the subcutaneous space,"[1]; sc co-administration vs biotherapeutic alone, FIGS. 5A and 5B",improves

# — patent US20220016241A1, “COMPOSITIONS AND METHODS FOR REDUCING ANTIGEN-SPECIFIC IMMUNOGENICITY” (The Research Foundation for The State University of New York, priority 2013, published 2022)
